Results: the SangsterLogP compilation

Experiment: not given

logP | SMILES
2.94 | O=Cc1ssc(=O)c1-c1ccccc1
2.18 | CC(=O)c1cc(=S)ss1
2.12 | CCc1c(C(C)=O)ssc1=O
1.83 | COc1c(C=O)ssc1=O
3.31 | CC(=O)c1ssc(=S)c1-c1ccccc1
1.81 | O=Cc1cc(=O)ss1
1.14 | CC(=O)c1cc(=O)ss1
2.5 | CC(=O)c1ssc(=O)c1-c1ccccc1
2.53 | O=Cc1cc(=S)ss1
3.21 | CCc1c(C(C)=O)ssc1=S
2.87 | Cc1c(C=O)ssc1=S
1.58 | CC(=O)c1ssc(=O)c1C

Experiment: method code SF-AS, from DOI: 10.1007/s11095-005-4582-3, PMID: 15948031

logP | SMILES
2.95 | O=Cc1ssc(=S)c1Cl
3.15 | CCc1c(C=O)ssc1=S
1.62 | Cc1c(C=O)ssc1=O
2.58 | CCc1c(C=O)ssc1=O
2.56 | COc1c(C=O)ssc1=S
2.16 | O=Cc1ssc(=O)c1Cl
3.43 | O=Cc1ssc(=S)c1-c1ccccc1
